From PubChem BioAssay AID330 (DTP/NCI, 2004)
“And” between values parts separate entries of the source, which are not always exact repeats. Equal entries are not always repeated. Inconclusive results and toxic doses are left out. Rule for the calls: active = survival T/C of 150% or more; inactive = T/C below 125% in these data. Square brackets hold non-standard residues; d marks the D form. Peptide text beside a SMILES is read from it. * marks the point of attachment. ξ: configuration not given here. Boc = CC(C)(C)OC(=O)*; ξP = O=C(O)C1CCCN1

Tested on: P388 leukemia ip, CD2F1 mice, survival T/C
Assay: NCI In Vivo Anticancer Drug Screen. Data for tumor model P388 Leukemia (intraperitoneal) in CD2F1 (CDF1) mice
Conditions: endpoint: median survival time, higher = longer survival
Procedure, shortened: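 Mice carrying the transplanted tumor received test compound or vehicle. Survival was recorded in each group, and the value is the treated-group measurement divided by that of the vehicle-treated control group.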

[1] = dose: 50.0 mg/kg/injection, schedule: Q01DX005 (ip), vehicle: saline with Tween-80
[2] = dose: 100.0 mg/kg/injection, schedule: Q01DX005 (ip), vehicle: saline with Tween-80
[3] = dose: 200.0 mg/kg/injection, schedule: Q01DX005 (ip), vehicle: saline with Tween-80
[4] = dose: 50.0 mg/kg/injection, schedule: Q01DX009 (ip), vehicle: Klucel (hydroxypropylcellulose) (HPC)
[5] = dose: 60.0 mg/kg/injection, schedule: Q01DX005 (ip), vehicle: saline with Tween-80
[6] = dose: 120.0 mg/kg/injection, schedule: Q01DX005 (ip), vehicle: saline with Tween-80
[7] = dose: 240.0 mg/kg/injection, schedule: Q01DX005 (ip), vehicle: saline with Tween-80
[8] = dose: 12.5 mg/kg/injection, schedule: Q01DX001 (ip), vehicle: saline
[9] = dose: 25.0 mg/kg/injection, schedule: Q01DX001 (ip), vehicle: saline
[10] = dose: 50.0 mg/kg/injection, schedule: Q01DX001 (ip), vehicle: saline
[11] = dose: 12.5 mg/kg/injection, schedule: Q01DX005 (ip), vehicle: saline with Tween-80
[12] = dose: 25.0 mg/kg/injection, schedule: Q01DX005 (ip), vehicle: saline with Tween-80
[13] = dose: 100.0 mg/kg/injection, schedule: Q04DX002 (ip), vehicle: saline with Tween-80
[14] = dose: 200.0 mg/kg/injection, schedule: Q04DX002 (ip), vehicle: saline with Tween-80
[15] = dose: 12.5 mg/kg/injection, schedule: Q01DX009 (ip), vehicle: saline with Tween-80
[16] = dose: 25.0 mg/kg/injection, schedule: Q01DX009 (ip), vehicle: saline with Tween-80
[17] = dose: 50.0 mg/kg/injection, schedule: Q01DX009 (ip), vehicle: saline with Tween-80
[18] = dose: 100.0 mg/kg/injection, schedule: Q01DX009 (ip), vehicle: saline with Tween-80
[19] = dose: 200.0 mg/kg/injection, schedule: Q01DX009 (ip), vehicle: saline with Tween-80
[20] = dose: 25.0 mg/kg/injection, schedule: Q01DX009 (ip), vehicle: saline
[21] = dose: 50.0 mg/kg/injection, schedule: Q01DX009 (ip), vehicle: saline
[22] = dose: 100.0 mg/kg/injection, schedule: Q01DX009 (ip), vehicle: saline
[23] = dose: 200.0 mg/kg/injection, schedule: Q01DX009 (ip), vehicle: saline
[24] = dose: 400.0 mg/kg/injection, schedule: Q01DX009 (ip), vehicle: saline
[25] = dose: 25.0 mg/kg/injection, schedule: Q01DX009 (ip), vehicle: Klucel (hydroxypropylcellulose) (HPC)

Measured: T/C

CN1CCC2(CC1)C(C#N)C(=O)NC(=O)C2C#N (configuration not stated)
inactive: [1] 105 % of control | [2] 100 % of control | [3] 100 % of control

CNC(=O)OCc1c(COC(=O)NC)c(C)n(-c2ccc3c(c2)OCO3)c1C
inactive: [4] 89 % of control

CCCCOC1NC(=O)Oc2ccccc21 (configuration not stated)
inactive: [5] 100 % of control and 103 % of control and 97 % of control | [6] 101 % of control and 108 % of control (2×) | [7] 100 % of control and 109 % of control

C=C(C)C(=O)OC1CC2(C)OC(=CC2=O)C(C)CC2OC(=O)C(=C)C12 (configuration not stated)
inactive: dose: 25.0 mg/kg/injection, schedule: Q01DX001 (ip), vehicle: saline with Tween-80 118 % of control | dose: 50.0 mg/kg/injection, schedule: Q01DX001 (ip), vehicle: saline with Tween-80 116 % of control

O=S1(=O)CC(N2CCOCC2)C2=C(O1)c1sc(-c3ccccc3)nc1CC2 (configuration not stated)
inactive: dose: 50.0 mg/kg/injection, schedule: Q01DX005 (ip), vehicle: Klucel (hydroxypropylcellulose) (HPC) 104 % of control | dose: 100.0 mg/kg/injection, schedule: Q01DX005 (ip), vehicle: Klucel (hydroxypropylcellulose) (HPC) 105 % of control | dose: 200.0 mg/kg/injection, schedule: Q01DX005 (ip), vehicle: Klucel (hydroxypropylcellulose) (HPC) 98 % of control

OCN1CCC23c4c5ccc(O)c4OC2C(O)C=CC3C1C5 (configuration not stated)
inactive: [1] 100 % of control | [2] 100 % of control | [3] 100 % of control

CC(C)Cn1c(Cl)c(/C=N\Nc2ccc([N+](=O)[O-])cc2)c2ccccc21
inactive: [8] 94 % of control | [9] 88 % of control | [10] 96 % of control

C=CCOc1ccccc1N/N=C(\Cl)C(=O)OC
inactive: [11] 102 % of control | [12] 108 % of control | [1] 109 % of control and 114 % of control

COC1=CC2(CCN(C)C(=O)C(F)(F)F)C(=CC1=O)CCc1ccc(OC)c(O)c12 (configuration not stated)
inactive: [13] 101 % of control | [14] 100 % of control | dose: 400.0 mg/kg/injection, schedule: Q04DX002 (ip), vehicle: saline with Tween-80 93 % of control

O=C(NC1c2ccccc2CCc2ccccc21)C(F)(F)F
inactive: [15] 86 % of control | [16] 117 % of control | [17] 90 % of control | [18] 86 % of control | [19] 94 % of control

O=c1ssc2ncccc12
inactive: [5] 104 % of control | [6] 103 % of control | [7] 117 % of control

CN1C(=O)C(O)(c2c3c(c(C4(O)C(=O)N(C)c5ccccc54)c4c2OCO4)OCO3)c2ccccc21 (configuration not stated)
inactive: [5] 89 % of control | [6] 91 % of control | [7] 91 % of control

Cn1nc[n+](C)n1
inactive: dose: 12.5 mg/kg/injection, schedule: Q01DX009 (ip), vehicle: saline 91 % of control | [20] 91 % of control

COc1cc2c(C)cc(=O)oc2c(OCC(O)CN2CCCC2)c1OC (configuration not stated)
inactive: dose: 60.0 mg/kg/injection, schedule: Q01DX005 (ip), vehicle: saline 96 % of control | dose: 120.0 mg/kg/injection, schedule: Q01DX005 (ip), vehicle: saline 99 % of control

C=CCc1ccccc1OC
inactive: dose: 50.0 mg/kg/injection, schedule: Q04DX003 (ip), vehicle: saline 100 % of control | dose: 100.0 mg/kg/injection, schedule: Q04DX003 (ip), vehicle: saline 95 % of control | dose: 200.0 mg/kg/injection, schedule: Q04DX003 (ip), vehicle: saline 100 % of control

COC(=O)C1CCCN1C(=O)CNC(=O)OC(C)(C)C (stereo not drawn) (Boc-Gly-[ξP]-OMe)
inactive: [21] 105 % of control | [22] 99 % of control | [23] 99 % of control | [24] 90 % of control

N#Cc1c(C#N)c(O)c2c(N)cccc2c1O
inactive: [13] 105 % of control | [14] 108 % of control

COC(=O)CCCc1ccc(OC)c(OC)c1
inactive: [15] 100 % of control | [16] 92 % of control | [17] 95 % of control | [18] 89 % of control

Cc1nc2ccc3c(ccc4nc(C)c(N=Nc5ccc(C(=N)N)cc5)c(O)c43)c2c(O)c1N=Nc1ccc(C(=N)N)cc1
inactive: [1] 114 % of control | [2] 116 % of control | [3] 116 % of control

OC(CI)C(O)C(O)C(O)CI (configuration not stated)
inactive: [18] 105 % of control and 115 % of control | [22] 98 % of control | dose: 100.0 mg/kg/injection, schedule: Q04DX003 (ip), vehicle: saline with Tween-80 100 % of control and 104 % of control | dose: 132.0 mg/kg/injection, schedule: Q01DX009 (ip), vehicle: saline with Tween-80 122 % of control | [23] 91 % of control | dose: 200.0 mg/kg/injection, schedule: Q04DX003 (ip), vehicle: saline with Tween-80 104 % of control and 113 % of control | [24] 105 % of control | dose: 400.0 mg/kg/injection, schedule: Q04DX003 (ip), vehicle: saline with Tween-80 100 % of control and 113 % of control | dose: 500.0 mg/kg/injection, schedule: Q01DX009 (ip), vehicle: saline 96 % of control

CN(C)c1ccc2nc(/C=N/NC(N)=S)ccc2c1
inactive: dose: 100.0 mg/kg/injection, schedule: Q04DX002 (ip), vehicle: distilled water + Tween-80 + alcohol 101 % of control | dose: 200.0 mg/kg/injection, schedule: Q04DX002 (ip), vehicle: distilled water + Tween-80 + alcohol 92 % of control

O=c1[nH]c(Sc2ccccn2)ccc1[N+](=O)[O-]
inactive: dose: 6.25 mg/kg/injection, schedule: Q01DX009 (ip), vehicle: Klucel (hydroxypropylcellulose) (HPC) 97 % of control | dose: 12.5 mg/kg/injection, schedule: Q01DX009 (ip), vehicle: Klucel (hydroxypropylcellulose) (HPC) 91 % of control | [25] 98 % of control and 92 % of control

CCCOc1cc2c(cc1C(C)c1ccc(OCC)cc1)OCO2 (configuration not stated)
inactive: [11] 100 % of control | [12] 110 % of control | [1] 115 % of control | [5] 105 % of control | [6] 113 % of control

NCc1ccccc1
inactive: [21] 103 % of control and 95 % of control | [22] 101 % of control and 109 % of control

S
inactive: [18] 113 % of control | [19] 115 % of control | dose: 400.0 mg/kg/injection, schedule: Q01DX009 (ip), vehicle: saline with Tween-80 113 % of control

CC(=O)Nc1ccc[nH]c1=O
inactive: [25] 108 % of control and 96 % of control | [20] 99 % of control and 110 % of control | [4] 99 % of control and 104 % of control | [21] 108 % of control and 92 % of control | dose: 100.0 mg/kg/injection, schedule: Q01DX009 (ip), vehicle: Klucel (hydroxypropylcellulose) (HPC) 99 % of control and 104 % of control | [22] 103 % of control and 117 % of control | dose: 200.0 mg/kg/injection, schedule: Q01DX009 (ip), vehicle: Klucel (hydroxypropylcellulose) (HPC) 101 % of control and 96 % of control | [23] 101 % of control and 103 % of control | dose: 400.0 mg/kg/injection, schedule: Q01DX009 (ip), vehicle: Klucel (hydroxypropylcellulose) (HPC) 109 % of control and 96 % of control | [24] 104 % of control and 108 % of control

CN(C)CCN(C)CCC(=O)/C=C/c1ccccc1
inactive: [8] 94 % of control | [9] 101 % of control | [10] 111 % of control
